Reference: US20160237502A1, “MARKERS FOR LIPID METABOLISM” (priority 2014, published 2016)
Entries after “also recorded” stand apart in the source; their conditions may differ.

Legend:
[1] = test system: alh-6 mutant worms; experiment: Fat content during fasting measured by Nile Red staining; assay type: in vivo, C. elegans; settings: NAC-treated alh-6 mutant worms
Method: For starvation, synchronized L1 animals were added to nematode growth medium (NGM) plates seeded with indicated bacteria. After 2 days at 20° C., L4 animals were collected, washed with M9 buffer at least three times and then subjected to fasting in M9 liquid with shaking for indicated time before collection for further analysis. Starvation survival assay was performed as previous described (Artyukhin et al., Sci. Rep.; 3, 2777; 2013). […] After 24 h, synchronized L1 animals were resuspended in M9 at a concentration of two worms per microliter. Starvation culture was mixed by constant rocking. Every 2 days, a portion of animals was recovered on normal OP50-seeded NGM plates. Animals that resumed development were considered to be surviving.
Nile Red staining was performed as previously described (Pino, et al., J. Vis. Exp. 73; 2013). Briefly, animals of indicated genotypes were collected, fixed in 40% isopropanol at room temperature for 3 min and stained in 3 μg ml-1 Nile Red working solution in dark for 2 h. Worms were then washed with M9 for at least 30 min, mounted on slides and imaged under the green fluorescent protein channel of microscope Zeiss Axio Imager with Zen software package. Fluorescent density was measured using ImageJ software. Approximately ten animals from each experiment (n) were used to calculate the fluorescent density.

[2] = test system: SKN-1; experiment: SKN-1 transcriptional activity reporter gst-4p::GFP activation in worms; assay type: in vivo, C. elegans
[3] = test system: alh-6 mutants; settings: NAC treatment, previous study; cited from earlier work

| Compound | fat mobilization in response to fasting [1] | SKN-1 reporter activation induced by exposure to arsenite ([2]; gst-4p::GFP reporter, arsenite as inducer of oxidative stress, NAC treatment) | SKN-1 activation observed in fasted alh-6 mutants ([2]; gst-4p::GFP reporter, fasted alh-6 mutants, NAC treatment) | shortened lifespan of alh-6 mutants [3] | SKN-1 reporter activation ([2]; in vivo) |
| --- | --- | --- | --- | --- | --- |
| CC(=O)N[C@@H](CS)C(=O)O [NAC, N-acetylcysteine] | still exhibited accelerated fat mobilization | blocked the SKN-1 reporter activation; also recorded: inhibits arsenite (AS) induced SKN-1 reporter activation | no effect; also recorded: not activation when alh-6 mutants are fasted | completely abrogated the shortened lifespan | – |
| arsenite | – | – | – | – | SKN-1 reporter activation induced |
